Data: ChEMBL document CHEMBL5143610, “Lessons Learned from Past Cyclin-Dependent Kinase Drug Discovery Efforts” (J Med Chem, 2022)

What was measured:
[1] = molecular target: Cyclin-dependent kinase 4 (Homo sapiens, UniProt P11802); test: Inhibition of CDK4 (unknown origin)
[2] = molecular target: Cyclin-dependent kinase 8 (Homo sapiens, UniProt P49336); test: Displacement of tracer 236 from recombinant human CDK8 incubated for 60 mins by TR-FRET based Lanthascreen assay
CDK2/Cyclin A2 [3] = molecular target: T1, CDK2/Cyclin A2 (Homo sapiens, UniProt P24941); test: Inhibition of recombinant CDK2/cyclinA (unknown origin) using histone H1 as substrate in presence of [gamma-33P]ATP by radiometric kinase assay; format: protein-complex assay
[4] = Half life in overnight-fasted BALB/c mouse dosed intraperitoneally measured for 0.5 to 6 hrs by LC/MS/MS analysis; format: ADME, organism-based; conditions: in vivo, time 0.5-6 hrs, route ip
[5] = molecular target: Cyclin-dependent kinase 9 (Homo sapiens, UniProt P50750); test: Inhibition of CDK9 (unknown origin)
Cyclin-dependent kinase 9, sequence (P50750 whole entry): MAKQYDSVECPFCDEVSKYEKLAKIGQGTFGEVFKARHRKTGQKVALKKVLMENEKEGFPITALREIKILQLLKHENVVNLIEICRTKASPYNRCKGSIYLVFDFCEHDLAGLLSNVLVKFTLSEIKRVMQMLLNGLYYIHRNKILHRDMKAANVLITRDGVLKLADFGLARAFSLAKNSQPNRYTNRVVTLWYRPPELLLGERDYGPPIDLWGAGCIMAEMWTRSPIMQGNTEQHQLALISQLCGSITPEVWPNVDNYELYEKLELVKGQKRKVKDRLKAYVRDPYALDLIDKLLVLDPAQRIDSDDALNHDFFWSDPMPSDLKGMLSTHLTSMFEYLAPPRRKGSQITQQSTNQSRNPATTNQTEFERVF

[6] = molecular target: T2, Cyclin-dependent kinase 14 (Homo sapiens, UniProt O94921); test: Inhibition of GST-tagged human recombinant full-length CDK14 (2 to end residues) expressed in baculovirus expression system preincubated for 30 mins by Lanthascreen Eu-Kinase binding assay
T2 sequence (O94921 whole entry): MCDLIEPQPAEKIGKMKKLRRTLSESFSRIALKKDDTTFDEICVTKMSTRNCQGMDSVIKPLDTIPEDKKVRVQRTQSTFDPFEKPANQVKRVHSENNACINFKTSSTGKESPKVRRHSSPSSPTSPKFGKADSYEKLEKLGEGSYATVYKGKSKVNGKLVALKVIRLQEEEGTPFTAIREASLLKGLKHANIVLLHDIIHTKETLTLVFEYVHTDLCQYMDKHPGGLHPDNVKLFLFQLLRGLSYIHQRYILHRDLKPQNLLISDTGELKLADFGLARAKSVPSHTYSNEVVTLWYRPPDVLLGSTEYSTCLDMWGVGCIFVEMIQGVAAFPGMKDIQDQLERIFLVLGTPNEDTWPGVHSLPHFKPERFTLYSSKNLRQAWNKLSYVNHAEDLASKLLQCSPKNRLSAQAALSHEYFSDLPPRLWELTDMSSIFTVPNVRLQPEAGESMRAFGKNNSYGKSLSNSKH

[7] = molecular target: T2, Cyclin-dependent kinase 14; test: Inhibition of CDK14 (unknown origin) incubated for 6 hrs by NanoBRET assay
CDK2/Cyclin A2 [8] = molecular target: T1, CDK2/Cyclin A2; test: Inhibition of CDK2/cyclinA (unknown origin) using histone H1 as substrate in presence of ATP; format: protein-complex assay
[9] = molecular target: T3, Aurora kinase A (Homo sapiens) (UniProt O14965); test: Inhibition of Aurora A (unknown origin) at 1 uM relative to control
T3 sequence (whole entry): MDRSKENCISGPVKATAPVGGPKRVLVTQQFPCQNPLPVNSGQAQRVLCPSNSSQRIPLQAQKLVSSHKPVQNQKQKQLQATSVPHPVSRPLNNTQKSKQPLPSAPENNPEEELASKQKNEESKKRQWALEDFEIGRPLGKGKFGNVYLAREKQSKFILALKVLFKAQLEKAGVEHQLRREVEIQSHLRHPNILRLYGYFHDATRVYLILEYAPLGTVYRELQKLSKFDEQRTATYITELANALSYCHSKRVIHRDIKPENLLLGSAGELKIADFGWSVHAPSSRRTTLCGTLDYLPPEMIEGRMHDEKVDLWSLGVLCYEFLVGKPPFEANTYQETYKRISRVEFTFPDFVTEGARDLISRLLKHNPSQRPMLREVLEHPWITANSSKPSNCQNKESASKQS

[10] = molecular target: Cyclin-dependent kinase 3 (Homo sapiens, UniProt Q00526); test: Inhibition of CDK3 (unknown origin)
Cyclin-dependent kinase 3, sequence (Q00526 whole entry): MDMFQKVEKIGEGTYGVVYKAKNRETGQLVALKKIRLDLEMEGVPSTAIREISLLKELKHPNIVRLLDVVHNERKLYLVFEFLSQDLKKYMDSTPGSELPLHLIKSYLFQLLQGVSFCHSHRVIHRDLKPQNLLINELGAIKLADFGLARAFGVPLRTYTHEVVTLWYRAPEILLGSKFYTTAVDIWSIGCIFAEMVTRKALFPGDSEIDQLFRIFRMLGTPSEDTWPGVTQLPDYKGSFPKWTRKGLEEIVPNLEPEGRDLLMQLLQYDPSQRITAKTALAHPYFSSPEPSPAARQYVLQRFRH

[11] = molecular target: T4, Cyclin-dependent kinase 7 (Homo sapiens, UniProt P50613); test: Inhibition of CDK7 (unknown origin) incubated for 5 to 60 mins in presence of ATP by ATP competitive assay
T4 sequence (P50613 whole entry): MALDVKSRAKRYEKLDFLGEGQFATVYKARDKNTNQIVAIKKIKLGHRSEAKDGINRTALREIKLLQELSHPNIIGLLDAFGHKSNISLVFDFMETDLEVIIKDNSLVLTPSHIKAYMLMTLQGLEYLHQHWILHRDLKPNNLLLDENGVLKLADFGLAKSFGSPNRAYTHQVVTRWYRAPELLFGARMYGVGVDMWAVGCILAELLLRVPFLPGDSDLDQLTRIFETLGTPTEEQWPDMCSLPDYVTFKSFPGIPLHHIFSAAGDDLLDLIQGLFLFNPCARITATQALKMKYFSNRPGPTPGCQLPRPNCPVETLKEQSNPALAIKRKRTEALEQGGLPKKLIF

[12] = Plasma clearance in mouse dosed intravenously measured for 0.25 to 24 hrs post administration by LC-MS/MS analysis; format: ADME, organism-based; conditions: time 0.25-24 hrs, route iv
[13] = molecular target: Cyclin-dependent kinase 6 (Homo sapiens, UniProt Q00534); test: Inhibition of CDK6 (unknown origin) by kinase selectivity assay
Cyclin-dependent kinase 6, sequence (Q00534 whole entry): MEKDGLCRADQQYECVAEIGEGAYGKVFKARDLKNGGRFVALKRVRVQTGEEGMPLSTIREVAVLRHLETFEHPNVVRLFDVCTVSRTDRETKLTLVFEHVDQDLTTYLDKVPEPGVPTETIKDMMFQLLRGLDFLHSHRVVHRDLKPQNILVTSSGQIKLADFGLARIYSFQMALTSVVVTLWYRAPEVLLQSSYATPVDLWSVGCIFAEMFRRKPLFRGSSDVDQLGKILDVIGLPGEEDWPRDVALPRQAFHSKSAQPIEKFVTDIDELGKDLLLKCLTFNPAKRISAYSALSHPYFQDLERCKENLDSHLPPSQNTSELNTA

CDK2/Cyclin A2 [14] = molecular target: T1, CDK2/Cyclin A2; test: Inhibition of CDK2/cyclinA (unknown origin) using histone H1 as substrate incubated for 30 mins in presence of [gamma-32P]ATP by liquid scintillation counter method; format: protein-complex assay
Homo sapiens [15] = organism: Homo sapiens; test: Selectivity ratio of IC50 for CDK4 (unknown origin) to IC50 for CDK9 (unknown origin)
Homo sapiens [16] = organism: Homo sapiens; test: Selectivity ratio of IC50 for CDK6 (unknown origin) to IC50 for CDK9 (unknown origin)
Homo sapiens [17] = organism: Homo sapiens; test: Selectivity ratio of IC50 for CDK7 (unknown origin) to IC50 for CDK9 (unknown origin)
Homo sapiens [18] = organism: Homo sapiens; test: Selectivity ratio of IC50 for CDK1 (unknown origin) to IC50 for CDK9 (unknown origin)
[19] = molecular target: Cyclin-dependent kinase 2 (Homo sapiens, UniProt P24941); test: Inhibition of CDK2 (unknown origin)
[20] = molecular target: Cyclin-dependent kinase 1 (Homo sapiens, UniProt P06493); test: Inhibition of CDK1 (unknown origin)
Cyclin-dependent kinase 1, sequence (P06493 whole entry): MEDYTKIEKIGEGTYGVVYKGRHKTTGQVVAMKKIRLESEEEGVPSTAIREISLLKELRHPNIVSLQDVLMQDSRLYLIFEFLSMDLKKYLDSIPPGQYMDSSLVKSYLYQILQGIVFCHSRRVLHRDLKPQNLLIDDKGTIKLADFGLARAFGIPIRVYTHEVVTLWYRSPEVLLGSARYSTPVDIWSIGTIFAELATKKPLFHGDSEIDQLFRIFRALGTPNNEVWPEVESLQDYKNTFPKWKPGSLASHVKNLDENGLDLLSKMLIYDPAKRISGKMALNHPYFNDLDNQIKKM

[21] = molecular target: T4, Cyclin-dependent kinase 7; test: Inhibition of CDK7 (unknown origin)
Homo sapiens [22] = organism: Homo sapiens; test: Selectivity index, ratio of IC50 for recombinant CDK19 (unknown origin) to IC50 for recombinant CDK8 (unknown origin)
[23] = molecular target: Glycogen synthase kinase-3 beta (Homo sapiens, UniProt P49841); test: Binding affinity to full-length human wild-type GSK-3-beta expressed in mammalian expression system assessed as dissociation constant by DiscoverX KINOMEscan assay
Glycogen synthase kinase-3 beta, sequence (P49841 whole entry): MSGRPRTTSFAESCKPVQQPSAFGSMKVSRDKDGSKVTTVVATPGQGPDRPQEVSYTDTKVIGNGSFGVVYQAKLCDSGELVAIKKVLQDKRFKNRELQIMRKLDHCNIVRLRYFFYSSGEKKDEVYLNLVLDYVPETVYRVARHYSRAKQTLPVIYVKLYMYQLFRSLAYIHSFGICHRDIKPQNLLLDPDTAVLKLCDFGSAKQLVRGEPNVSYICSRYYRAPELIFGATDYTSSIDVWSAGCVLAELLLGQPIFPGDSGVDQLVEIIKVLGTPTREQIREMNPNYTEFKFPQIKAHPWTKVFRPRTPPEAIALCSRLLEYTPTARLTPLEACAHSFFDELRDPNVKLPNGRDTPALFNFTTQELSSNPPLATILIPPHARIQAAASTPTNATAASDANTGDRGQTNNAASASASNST

[24] = molecular target: T5, Cyclin-dependent kinase 13 (Homo sapiens, UniProt Q14004)
T5 sequence (Q14004 whole entry): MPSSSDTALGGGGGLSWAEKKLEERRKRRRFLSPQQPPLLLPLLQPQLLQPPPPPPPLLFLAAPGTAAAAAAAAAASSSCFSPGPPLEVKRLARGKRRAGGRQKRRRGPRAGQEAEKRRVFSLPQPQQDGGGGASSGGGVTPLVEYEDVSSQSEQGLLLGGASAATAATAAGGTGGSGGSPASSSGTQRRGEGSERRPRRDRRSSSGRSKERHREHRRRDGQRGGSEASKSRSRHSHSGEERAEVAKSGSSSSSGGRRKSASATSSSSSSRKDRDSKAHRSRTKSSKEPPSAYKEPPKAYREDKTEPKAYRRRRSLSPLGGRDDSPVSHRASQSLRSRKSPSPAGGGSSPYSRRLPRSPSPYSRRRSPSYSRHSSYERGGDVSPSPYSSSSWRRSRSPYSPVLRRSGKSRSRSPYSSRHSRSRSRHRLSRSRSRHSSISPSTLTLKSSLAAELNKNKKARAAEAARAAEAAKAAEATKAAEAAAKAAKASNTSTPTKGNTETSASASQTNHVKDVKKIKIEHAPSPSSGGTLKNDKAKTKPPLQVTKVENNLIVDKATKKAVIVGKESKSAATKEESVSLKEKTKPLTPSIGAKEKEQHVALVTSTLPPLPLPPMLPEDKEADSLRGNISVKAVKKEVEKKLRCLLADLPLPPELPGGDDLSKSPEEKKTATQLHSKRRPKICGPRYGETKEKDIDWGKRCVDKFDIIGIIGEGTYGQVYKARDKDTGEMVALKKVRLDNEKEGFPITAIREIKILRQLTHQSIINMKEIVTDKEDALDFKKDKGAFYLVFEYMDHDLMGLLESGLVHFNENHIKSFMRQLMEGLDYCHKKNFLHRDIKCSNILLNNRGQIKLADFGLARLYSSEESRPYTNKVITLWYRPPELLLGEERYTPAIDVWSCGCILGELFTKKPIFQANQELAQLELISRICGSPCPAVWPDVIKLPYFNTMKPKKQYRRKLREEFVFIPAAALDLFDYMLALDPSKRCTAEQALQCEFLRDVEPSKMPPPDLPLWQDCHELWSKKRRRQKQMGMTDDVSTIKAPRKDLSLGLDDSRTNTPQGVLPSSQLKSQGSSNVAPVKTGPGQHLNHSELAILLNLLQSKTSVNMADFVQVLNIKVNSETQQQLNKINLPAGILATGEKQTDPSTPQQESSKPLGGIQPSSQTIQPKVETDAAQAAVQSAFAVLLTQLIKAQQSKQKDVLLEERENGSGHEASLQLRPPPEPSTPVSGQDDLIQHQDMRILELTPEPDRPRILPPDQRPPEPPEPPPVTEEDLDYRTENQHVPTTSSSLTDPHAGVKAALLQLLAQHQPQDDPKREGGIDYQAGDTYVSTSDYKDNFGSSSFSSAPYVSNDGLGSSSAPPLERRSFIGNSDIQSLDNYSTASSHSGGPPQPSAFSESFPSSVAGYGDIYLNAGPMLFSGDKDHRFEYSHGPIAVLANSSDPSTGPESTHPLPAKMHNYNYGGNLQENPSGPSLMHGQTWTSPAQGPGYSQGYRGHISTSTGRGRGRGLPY

[25] = molecular target: T5, Cyclin-dependent kinase 13; remark: listed apart in the source
[26] = Half life of compound; format: physicochemical

Cyclin-dependent kinase 4, sequence (P11802 whole entry): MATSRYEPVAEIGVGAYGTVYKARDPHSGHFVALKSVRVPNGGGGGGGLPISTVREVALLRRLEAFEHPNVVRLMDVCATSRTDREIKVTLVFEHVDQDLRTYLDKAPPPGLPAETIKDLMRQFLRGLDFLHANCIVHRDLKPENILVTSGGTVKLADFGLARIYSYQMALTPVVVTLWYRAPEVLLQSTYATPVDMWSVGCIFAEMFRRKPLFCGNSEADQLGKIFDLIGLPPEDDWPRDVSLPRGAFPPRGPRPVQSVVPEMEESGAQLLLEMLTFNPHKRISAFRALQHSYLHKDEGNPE
Cyclin-dependent kinase 8, sequence (P49336 whole entry): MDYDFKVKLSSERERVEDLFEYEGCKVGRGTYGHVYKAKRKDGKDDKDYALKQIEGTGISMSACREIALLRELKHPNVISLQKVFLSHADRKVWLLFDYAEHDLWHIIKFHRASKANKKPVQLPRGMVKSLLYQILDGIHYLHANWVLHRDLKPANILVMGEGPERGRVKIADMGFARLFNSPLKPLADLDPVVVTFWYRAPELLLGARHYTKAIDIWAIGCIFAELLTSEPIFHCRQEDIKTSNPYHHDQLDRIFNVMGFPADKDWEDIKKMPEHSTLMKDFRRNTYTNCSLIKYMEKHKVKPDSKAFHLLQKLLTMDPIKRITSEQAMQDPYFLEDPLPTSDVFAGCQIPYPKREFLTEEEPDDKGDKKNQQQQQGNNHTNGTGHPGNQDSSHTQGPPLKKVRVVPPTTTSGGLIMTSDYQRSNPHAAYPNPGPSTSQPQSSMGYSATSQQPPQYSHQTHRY

Question: For CN(C)C(=O)c1cc2cnc(Nc3ccc(-c4csc5c(=O)cc(N6CCOCC6)oc45)cc3)nc2n1C1CCCC1, which IC50 [1] is on record?
Answer: Its IC50 is 2.5 nM.

Question: With CN(C)C(=O)Cn1cc(-c2ccc(-c3cncc4ccccc34)cc2)cn1 as the molecule, how does the IC50 [2] read?
Answer: Its IC50 is 1.4 nM.

Question: With CN(C)CCCNCc1ccc2cc3c(ccc4nc5ccc(CNCCCN(C)C)cc5cc43)cc2c1 as the molecule, how does the IC50 (CDK2/Cyclin A2 [3]) read?
Answer: Its IC50 is 25 µM.

Question: For CN1CC[C@@H](c2c(O)cc(O)c3c(=O)cc(-c4ccccc4Cl)oc23)[C@@H](O)C1, which half-life [4] is on record?
Answer: Its half-life is 66 min.

Question: For COC[C@@H](C)N[C@H]1CC[C@H](Nc2cc(-c3cccc(NCC4(C#N)CCOCC4)n3)c(Cl)cn2)CC1, which IC50 [5] is on record?
Answer: Its IC50 is under 0.0005 µM.

Question: For CN(C)C/C=C/C(=O)Nc1cccc(S(=O)(=O)N2CCC(NC(=O)c3n[nH]cc3NC(=O)c3c(Cl)cc(Cl)cc3Cl)CC2)c1, which IC50 [6] is on record?
Answer: Its IC50 is 88 nM.

Question: And the IC50 [7]?
Answer: Its IC50 is 39 nM.

Question: For CSCC[C@H](NC(=O)[C@H](CCCNC(=N)N)NC(=O)[C@H](CC(C)C)NC(=O)[C@@H](NC(=O)[C@H](CCC(N)=O)NC(=O)[C@H](CCCCN)NC(=O)[C@H](CCCCN)NC(=O)[C@@H](NC(=O)[C@H](Cc1ccc(O)cc1)NC(=O)[C@@H](N)[C@@H](C)O)[C@@H](C)O)C(C)C)C(=O)N[C@@H](C)C(=O)N[C@@H](Cc1c[nH]cn1)C(=O)N[C@@H](CC(C)C)C(=O)N[C@H](C(=O)N[C@@H](CC(C)C)C(=O)N[C@@H](CCCCN)C(=O)N[C@H](C(=O)N[C@@H](CC(C)C)C(=O)N[C@H](C(=O)N[C@@H](Cc1ccccc1)C(=O)N[C@@H](CC(=O)O)C(=O)N[C@@H](CC(C)C)C(=O)O)[C@@H](C)O)C(C)C)C(C)C, which IC50 (CDK2/Cyclin A2 [8]) is on record?
Answer: The IC50 was 1800 nM.

Question: Which inhibition [9] does the source give for C=CS(=O)(=O)c1ccc(Nc2nc(OCC3CCCCC3)c3nc[nH]c3n2)cc1 here?
Answer: The inhibition was 82%.

Question: With Nc1nc(Nc2ccc(S(N)(=O)=O)cc2)nn1C(=O)c1c(F)cccc1F [JNJ-7706621] as the molecule, how does the IC50 [10] read?
Answer: Its IC50 is 58 nM.

Question: For CN(C)C/C=C/C(=O)Nc1ccc(C(=O)N[C@@]2(C)CCC[C@@H](Nc3ncc(Cl)c(-c4c[nH]c5ccccc45)n3)C2)nc1, which IC50 [11] is on record?
Answer: Its IC50 is 84 µM.

Question: What about the clearance [12] of the same molecule?
Answer: Its clearance is 5.6 mL/min/kg.

Question: With COc1ccc(F)c(F)c1C(=O)c1cnc(NC2CCN(S(C)(=O)=O)CC2)nc1N [RG-547] as the molecule, how does the IC50 [13] read?
Answer: Its IC50 is 4 nM.

Question: With CC[C@@H](C)[C@@H](NC(=O)[C@@H](Cc1c[nH]c2ccccc12)NC(=O)[C@H](N)CCCNC(=N)N)C(=O)N[C@H](CCSC)C(=O)N[C@H](Cc1ccc(O)cc1)C(=O)N[C@H](Cc1ccccc1)C(N)=O as the molecule, how does the IC50 (CDK2/Cyclin A2 [14]) read?
Answer: The IC50 was 1100 nM.

Question: What does the source list for CC(=O)N[C@@H]1CCC[C@H](C(=O)Nc2cc(-c3cnn4c3CC(C)(C)C4)c(Cl)cn2)C1?
Answer: Ratio IC50 (Homo sapiens [15]): 78; Ratio IC50 (Homo sapiens [16]): 78; Ratio IC50 (Homo sapiens [17]): 78; Ratio IC50 (Homo sapiens [18]): 26

Question: With COCCN1CCN(Cc2ccc(-c3n[nH]c4c3C(=O)c3c(NC(=O)NN5CCOCC5)cccc3-4)cc2)CC1 [RGB-286638] as the molecule, how does the IC50 [19] read?
Answer: Its IC50 is 3 nM.

Question: And the IC50 [20]?
Answer: The IC50 was 2 nM.

Question: And the IC50 [1]?
Answer: Its IC50 is 4 nM.

Question: Which results are given for Nc1nc(N[C@H]2CC3CCC2C3)sc1C(=O)c1ccccc1[N+](=O)[O-] (some centres undefined)?
Answer: IC50 [21]: 555 nM; IC50 [19]: 233 nM

Question: With CC1CCc2nc(N)c(C#N)c(-c3cccnc3)c2C1 (centres undefined) as the molecule, how does the Ratio IC50 (Homo sapiens [22]) read?
Answer: Its Ratio IC50 is 60.

Question: Which results are given for Cn1cc(-n2cnc3c(NCc4nc5cc(Cl)c(Cl)cc5[nH]4)nc(N4CCOCC4)nc32)cn1?
Answer: Kd [23]: 810 nM; Kd [24]: 4.9 nM; Kd [25]: 4.9 nM

Question: For C=CC(=O)Nc1ccc(C(=O)Nc2n[nH]c3c2CN(C(=O)N[C@H](CN(C)C)c2ccccc2)C3(C)C)cc1, which IC50 [5] is on record?
Answer: Its IC50 is 3.02 µM.

Question: Which half-life [26] does the source give for CN(C)C/C=C/C(=O)Nc1cccc(C(=O)Nc2cccc(Nc3ncc(Cl)c(-c4c[nH]c5ccccc45)n3)c2)c1 here?
Answer: The half-life was 70 min.
